Assay [1] addresses T1, Corticotropin-releasing factor receptor 2/Corticotropin-releasing factor-binding protein (Homo sapiens, UniProt P24387+Q13324).
T1 sequence (Q13324 whole entry): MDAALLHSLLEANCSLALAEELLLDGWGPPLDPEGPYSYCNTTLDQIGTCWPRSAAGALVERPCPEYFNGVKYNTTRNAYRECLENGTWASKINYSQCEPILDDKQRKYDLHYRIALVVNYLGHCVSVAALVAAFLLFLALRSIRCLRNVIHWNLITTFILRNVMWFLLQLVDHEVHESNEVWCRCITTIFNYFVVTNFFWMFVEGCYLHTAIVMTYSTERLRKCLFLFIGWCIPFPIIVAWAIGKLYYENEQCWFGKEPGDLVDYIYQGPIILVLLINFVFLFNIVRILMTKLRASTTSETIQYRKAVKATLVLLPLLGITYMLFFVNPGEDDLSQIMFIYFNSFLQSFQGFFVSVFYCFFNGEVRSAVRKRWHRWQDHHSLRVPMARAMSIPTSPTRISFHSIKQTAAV
T1 sequence (P24387 whole entry): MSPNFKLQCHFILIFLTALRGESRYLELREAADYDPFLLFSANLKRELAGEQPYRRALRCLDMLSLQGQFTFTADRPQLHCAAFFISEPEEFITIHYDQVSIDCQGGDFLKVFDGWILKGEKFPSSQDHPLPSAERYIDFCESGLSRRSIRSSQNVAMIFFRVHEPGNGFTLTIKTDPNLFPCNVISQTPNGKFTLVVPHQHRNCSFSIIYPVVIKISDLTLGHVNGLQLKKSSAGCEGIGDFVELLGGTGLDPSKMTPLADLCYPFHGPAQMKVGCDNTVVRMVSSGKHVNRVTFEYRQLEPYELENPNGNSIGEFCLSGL
The experiment in a line: activators of CRF receptor 2 with binding protein – uHTS hits, confirmation (AID 602473). The settings on record: read-out: EC50_Mean. In kind it is functional.

Assay [2] has as its target T1, Corticotropin-releasing factor receptor 2/Corticotropin-releasing factor-binding protein. The experiment in a line: Dose Response confirmation of uHTS hits for small molecule antagonists of the CRF-binding protein and CRF-R2 receptor complex. The format is functional. The settings on record: read-out: IC50_Mean.
In another assay the test system is H4. The assay is described as follows: Luminescence Cell-Based Dose Response HTS to Identify Activators of 5'UTR Stem-Loop Driven Prion Protein mRNA Translation in H4 Neuroglioblastoma Cells. [Related pubchem assays: 1829 (Project Summary), 1814 (Primary HTS)]. In kind it is functional. The conditions noted are these: Homo sapiens.
Assay [3] in a line: Luminescence Cell-Based Dose Response HTS to Identify Activators of Luciferase Translation or Activity in H4 […] Cells. [Related pubchem assays: 1829 (Project Summary), 1814 (Primary HTS)]. In kind it is functional.
Another assay addresses T2, Streptokinase A (Streptococcus pyogenes serotype M1, UniProt P10520).
T2 sequence (P10520 whole entry): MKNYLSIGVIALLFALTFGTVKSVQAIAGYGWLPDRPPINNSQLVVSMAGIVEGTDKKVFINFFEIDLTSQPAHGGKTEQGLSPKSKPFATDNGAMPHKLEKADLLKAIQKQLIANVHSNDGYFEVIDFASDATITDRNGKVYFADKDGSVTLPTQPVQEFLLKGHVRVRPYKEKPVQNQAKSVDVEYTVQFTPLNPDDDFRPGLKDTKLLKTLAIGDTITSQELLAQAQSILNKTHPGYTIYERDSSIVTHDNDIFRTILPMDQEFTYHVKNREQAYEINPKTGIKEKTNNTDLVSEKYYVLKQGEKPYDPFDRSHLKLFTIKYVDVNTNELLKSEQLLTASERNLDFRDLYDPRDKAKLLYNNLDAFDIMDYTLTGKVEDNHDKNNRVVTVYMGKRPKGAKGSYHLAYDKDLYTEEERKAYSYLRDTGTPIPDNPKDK
The experiment in a line: viability-normalized secreted streptokinase activity reduction – plasminogen activation absorbance, OD405, dose response (AID 1914).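 Further: secreted streptokinase activity via plasminogen activation per viability signal from cell pellet.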 In kind it is functional, Streptococcus pyogenes M1 GAS.

In the next assay the test system is Streptococcus. The assay is described as follows: GAS UMAA2166 growth inhibition – luminescence, BacTiterGlo, counter-screen for streptokinase expression inhibitor project, dose response (AID 1915).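 Further: potency for reduction of bacterial viability or growth.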 In kind it is functional, organism-based.
Assay [4] has as its system Streptococcus sp. 'group A'. The experiment in a line: Streptococcus pyogenes SK(-)GAS viability under kanamycin – luminescence, BacTiterGlo, confirmation, counter-screen for streptokinase expression inhibitor project, dose response (AID 1900). The format is functional, organism-based.
Assay [5] concerns the target T3, Replicative DNA helicase DnaB (Mycobacterium tuberculosis, UniProt P9WMR3).
T3 sequence (P9WMR3 whole entry): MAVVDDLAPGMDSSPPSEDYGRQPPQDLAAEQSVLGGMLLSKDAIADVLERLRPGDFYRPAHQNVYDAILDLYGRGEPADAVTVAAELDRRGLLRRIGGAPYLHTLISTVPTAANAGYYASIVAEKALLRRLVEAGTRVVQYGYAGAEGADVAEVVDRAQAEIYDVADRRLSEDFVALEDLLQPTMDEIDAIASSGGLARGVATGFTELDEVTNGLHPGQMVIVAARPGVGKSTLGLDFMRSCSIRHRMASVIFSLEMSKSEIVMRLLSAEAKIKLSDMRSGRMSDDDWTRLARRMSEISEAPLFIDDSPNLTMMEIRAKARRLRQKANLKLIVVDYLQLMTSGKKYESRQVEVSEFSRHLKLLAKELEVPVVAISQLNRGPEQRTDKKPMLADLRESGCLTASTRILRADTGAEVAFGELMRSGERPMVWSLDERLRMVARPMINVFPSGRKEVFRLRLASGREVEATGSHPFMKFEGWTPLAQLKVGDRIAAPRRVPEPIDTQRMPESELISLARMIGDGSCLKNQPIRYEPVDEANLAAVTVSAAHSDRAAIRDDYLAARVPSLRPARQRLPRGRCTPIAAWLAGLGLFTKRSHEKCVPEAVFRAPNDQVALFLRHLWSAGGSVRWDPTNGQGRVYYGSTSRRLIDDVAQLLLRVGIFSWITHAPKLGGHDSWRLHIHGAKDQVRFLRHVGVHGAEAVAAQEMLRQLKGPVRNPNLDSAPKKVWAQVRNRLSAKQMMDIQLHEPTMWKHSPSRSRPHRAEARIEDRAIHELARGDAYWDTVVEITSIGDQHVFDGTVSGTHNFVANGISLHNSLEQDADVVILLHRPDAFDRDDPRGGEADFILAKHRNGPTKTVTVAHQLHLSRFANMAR
The assay is described as follows: DnaB intein splicing inhibitors, dose response, biochemical, cell-free fluorescence (AID 449749). In kind it is functional.

A further assay has as its target T4, Protein RecA (Mycobacterium tuberculosis, UniProt P9WHJ3).
T4 sequence (P9WHJ3 whole entry): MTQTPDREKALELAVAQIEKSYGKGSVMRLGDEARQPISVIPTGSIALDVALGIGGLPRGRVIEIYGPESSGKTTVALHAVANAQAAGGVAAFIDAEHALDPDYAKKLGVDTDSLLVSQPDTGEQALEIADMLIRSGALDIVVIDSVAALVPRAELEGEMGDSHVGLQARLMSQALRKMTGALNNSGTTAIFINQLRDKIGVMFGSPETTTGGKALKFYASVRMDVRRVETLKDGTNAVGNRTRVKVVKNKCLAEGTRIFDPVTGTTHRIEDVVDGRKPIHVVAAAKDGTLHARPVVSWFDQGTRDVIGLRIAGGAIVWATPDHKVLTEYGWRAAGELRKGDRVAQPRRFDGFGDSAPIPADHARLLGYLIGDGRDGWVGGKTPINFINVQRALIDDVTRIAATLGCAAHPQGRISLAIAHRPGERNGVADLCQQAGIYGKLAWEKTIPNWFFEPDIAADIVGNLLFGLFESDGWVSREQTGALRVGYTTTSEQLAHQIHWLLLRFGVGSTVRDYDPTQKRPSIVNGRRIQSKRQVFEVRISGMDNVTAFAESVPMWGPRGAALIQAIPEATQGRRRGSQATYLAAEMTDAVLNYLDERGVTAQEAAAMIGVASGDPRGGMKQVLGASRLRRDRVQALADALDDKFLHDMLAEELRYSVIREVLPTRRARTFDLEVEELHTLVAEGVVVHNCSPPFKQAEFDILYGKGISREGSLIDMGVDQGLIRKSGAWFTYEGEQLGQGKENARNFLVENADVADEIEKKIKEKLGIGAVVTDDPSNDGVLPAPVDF
The assay is described as follows: Fluorescence Cell-Free Homogeneous Dose Retest to Identify Inhibitors of RecA-Intein Splicing Activity. [Related pubchem assays (depositor defined):AID2097, AID2223, AID489010, AID492950]. The format is functional.

Activity calls are given as the source filed them. For most assays here, no stated cut-off is given here; in the data, actives have a measured EC50 and inactives only a lower limit. A value given as a limit tells only on which side of the number the result lay.

In ChEMBL document CHEMBL1201862, “PubChem BioAssay data set” (2004) one finds EC50, IC50 and AC50 data, which are given here for 26 compounds.

For `O=C1C(=Cc2cccs2)C(=O)c2ccccc21`, the EC50 in assay [1] was > 53 µM (inactive). The IC50 in assay [2] is > 47.1 µM (inactive).
For `N#Cc1c(N2CCOCC2)nsc1-c1ccc(C(F)(F)F)cc1`, the EC50 with H4 was 24.7 µM (active); in assay [3], 10.9 µM (active).
Consider `Cc1cccc(-c2nc(C[S+]([O-])CC(=O)N3CC(C)CC(C)C3)c(C)o2)c1` (centres undefined), for which, in assay [1], the EC50 was > 53 µM (inactive). Also, the IC50 in [2] was > 47.1 µM (inactive).
Take `O=C1NC(=Nc2ccccn2)SC1Cc1ccc(Cl)cc1` (centres undefined): the EC50 on Streptokinase A is > 150 µM (not active).
For `O=C(NN1C(=O)CSC1=S)c1cccnc1`, in assay [1], the EC50 is > 53 µM (inactive). Besides, the IC50 in assay [2] was > 47.1 µM (inactive).
With `CC(=O)N1N=C(c2ccc(C)cc2)OC1c1ccc(C(C)C)cc1` (centres undefined), the EC50 in the assay with H4 is 6.68 µM (active); in assay [3], > 120 µM (not active).
In the case of `Brc1ccc(-c2cn3c(n2)CCc2ccc4cccnc4c2-3)cc1`, the EC50 with Streptococcus is > 150 µM (not active); on Streptokinase A, 23.8 µM (active); in [4], 4.51 µM (active).
As to `Cc1ccc(NC(=O)c2cnc(SCC(=O)NCC3CCCO3)n(C)c2=O)cc1C` (centres undefined), in [5], the AC50 was 7.83 µM (active). The EC50 on Protein RecA is 2.23 µM (active).
Regarding `COCCn1c(N)c(C(=O)NS(=O)(=O)c2ccc(C)cc2)c(=O)[nH]c1=O`, the EC50 (with Streptococcus; at Streptokinase A; in assay [4]) was > 150 µM (not active) throughout.
Regarding `C[C@@H]1CC[C@@]2(OC1)O[C@H]1C[C@H]3[C@@H]4CC=C5C[C@@H](O)[C@H](O)C[C@]5(C)C4CC[C@]3(C)[C@H]1[C@@H]2C` (some centres undefined), the EC50 with Streptococcus is 16.4 µM (active); on Streptokinase A, > 150 µM (not active); in assay [4], 4.77 µM (active).
As to `OC(C#CCN1CCCCCC1)(c1ccccc1)c1cccnc1` (centres undefined), the EC50 in [1] is > 53 µM (inactive). Moreover, the IC50 in assay [2] is > 47.1 µM (inactive).
`CCOC(=O)N1CCN(C(=O)CSc2nnc(-c3ccc(C(C)(C)C)cc3)o2)CC1`: the EC50 in assay [1] is > 53 µM (inactive). Further, in [2], the IC50 was > 47.1 µM (inactive).
On to `CC1=NN(c2ccccc2)C(=O)C1/C=C1\C(=O)NC(=O)N(c2ccc(C)c(C)c2)C1=O` (centres undefined), for which the AC50 in [5] is 23.6 µM (active). Also, the EC50 at Protein RecA was 3.37 µM (active).
For `Cc1sc(NC(=O)/C=C/C(=O)O)c(C(N)=O)c1-c1ccc(C(C)(C)C)cc1`, in assay [5], the AC50 is > 380 µM (inactive). On Protein RecA, the EC50 was 5.82 µM (active).
As to `O=C(Nc1ccc(-c2nc3ccccc3s2)c(OC(=O)c2ccccc2)c1)c1ccccc1`, the EC50 with H4 is reported as > 120 µM (not active).
Consider `O=C1C(Cc2ccccc2)Nc2ncnc(N3CCc4ccccc4C3)c2N1Cc1ccc(Cl)cc1` (centres undefined), for which, in assay [5], the AC50 is > 120 µM (inactive). Moreover, on Protein RecA, the EC50 is > 380 µM (inconclusive).
Take `COc1ccc(CCNC2=C(Cl)C(=O)N(Cc3ccccc3)C2=O)cc1OC`: the EC50 in [1] is > 53 µM (inactive). For the same compound, the IC50 in assay [2] is > 47.1 µM (inactive).
The corresponding values for `O=C(/C=C/c1ccc2ccccc2n1)N1CCN(c2ccccc2)CC1` are > 53 µM (inactive) and > 47.1 µM (inactive).
In the case of `O=C(Nc1cc(Cl)cc(Cl)c1)Nc1cnccn1`, the values for the EC50 (in the assay on Streptococcus; at Streptokinase A; in assay [4]) were > 150 µM (not active), > 150 µM (not active) and 7.66 µM (active), respectively.
For the compound `Cc1n[nH]c2c1C1(CCN(Cc3ccccc3)CC1)C(C#N)=C(N)O2`, the AC50 in assay [5] was > 380 µM (inactive). The EC50 on Protein RecA was 1.07 µM (active).
On to `CS(=O)(=O)c1ccc(C(=O)CN2C(=O)NC3(CCCc4ccccc43)C2=O)cc1` (centres undefined), for which the EC50 in assay [1] was > 53 µM (inactive). In assay [2], the IC50 was > 47.1 µM (inactive).
As for `O=C(CSc1nnnn1-c1ccccc1)NCCCN1CCCC1=O`, the EC50 in [1] is > 53 µM (inactive). Moreover, in assay [2], the IC50 was > 47.1 µM (inactive).
Take `COc1cc2[nH]c(=O)n(CCCCCC(=O)NC3CCCC3)c(=O)c2cc1OC`: the EC50 in assay [1] is > 53 µM (inactive). The IC50 in assay [2] was > 47.1 µM (inactive).
The corresponding values for `CC(C)(C)NC(=O)C(c1ccccn1)N(C(=O)C1CSC(=O)C1)c1cccc(F)c1` (centres undefined) are > 53 µM (inactive) and > 47.1 µM (inactive).
The corresponding values for `Cc1ccc(N2CC(C(=O)NC3CCC(C)CC3)CC2=O)cc1` (centres undefined) are > 53 µM (inactive) and > 47.1 µM (inactive).
`Cc1ccc(/N=c2/sc(C)c(C)n2C)cc1`: the EC50 in the assay with H4 is 108 µM (active); in [3], 13.9 µM (active).
